Data published in patent US7445892B2, “Method of testing anticancer agent-sensitivity of tumor cells” (Eisai Co., Ltd., priority 2000, dated 2008).

Tested on: HCT116-C9
Experiment: Gene expression analysis using DNA microarray (GeneChip Hu6800)
Assay type: cell-based, human
Conditions: HCT116-C9, 8 μM, 12 hours, compared with cells without drug; change of 1.8 times or more counted
Experimental: All cells were cultured in RPMI-1640 medium supplemented with 10% of fetal bovine serum, 100 units/ml of penicillin and 100 μg/ml of streptomycin at 37° C. under 5% CO2.
E7070, or ER-35748 or ER-68487 represented by the structural formula shown below was added to the media of an E7070-susceptible strain HCT116-C9 and an E7070-resistant strain HCT116-C9-C1 at a concentration of 8 μM and the cells were cultured. Then, cells were recovered after 0, 3, 6 and 12 hours. Further, the cells were also cultured for 12 hours without adding the drug and recovered.
Total RNA was extracted from these cells and subjected to the subsequent analyses. The RNA extracted from the cells cultured for 12 hours with the drug and the RNA from extracted the cells cultured for 12 hours without the drug were used for the gene expression analysis using a DNA microarray described in Example 2. HCT116-C9 was a substrain isolated from HCT116 derived from human colon cancer (American Type Culture Collection, Manassas, Va., U.S.A.), and HCT116-C9-C1 was an E7070-resistant substrain obtained by culturing this HCT116-C9 in the presence of E7070 with gradually increasing the E7070 concentration.
Total RNA was extracted from the recovered cells by using TRIZOL Reagent (Life Technologies Oriental) according to the attached operation manual.
Each RNA obtained in Example 1 was dissolved in 100 μl of sterilized water treated with diethyl pyrocarbonate (DEPC) and further purified by using RNeasy Column (QIAGEN), and double-stranded cDNA was synthesized by using SuperScript Choice System (Life Technologies Oriental) and a T7-d(T)24 primer.
First, to 10 μg of RNA, 5 μM T7-d(T)24 primer, 1×First strand buffer, 10 mM DTT, 500 μM dNTP mix and 20 units/μl of SuperScript II Reverse Transcriptase were added and the mixture was allowed to react at 42° C. for 1 hour to synthesize single-stranded DNA. Subsequently, to the DNA, 1×Second strand buffer, 200 μM dNTP mix, 67 U/ml of DNA ligase, 270 U/ml of DNA polymerase I and 13 U/ml of RNase H were added and the mixture was allowed to react at 16° C. for 2 hours to synthesize double-stranded cDNA. Further, to the cDNA, 67 U/ml of T4 DNA polymerase I was added and the mixture was allowed to react at 16° C. for 5 minutes and then 10 μl of 0.5 M EDTA was added to terminate the reaction.
The obtained cDNA was purified with phenol/chloroform, and a labeling reaction with biotinylated UTP and CTP was carried out by using RNA Transcript Labeling Kit (Enzo Diagnostics) according to the attached operation manual. The reaction product was purified with Rneasy Column and heated in 200 mM Tris/acetate buffer (pH 8.1), 150 mM magnesium acetate, 50 mM potassium acetate at 94° C. for 35 minutes to obtain fragment cRNA.
The fragmented cRNA was hybridized with GeneChip Hu6800 (Affymetrix) in 100 mM MES, 1 M sodium salt, 20 mM EDTA and 0.01% Tween 20 at 45° C. for 16 hours. After the hybridization, the GeneChip was washed and stained according to the protocol EukGE-WS2 attached to Affymetrix Fluidics Station. For the staining, streptavidin-phycoerythrin and biotinylated goat anti-streptavidin antibody were used. The stained GeneChip was scanned by using HP Argon Ion Laser Confocal Scanner (Hewlett Packard) to measure its fluorescence intensity. The fluorescence was measured at 570 nm by using an excitation light at 488 nm.
The quantitative data analyses were all conducted by using GeneChip Software (Affymetrix). To quantify RNA, an average of “differences [(Perfect match hybridization signal)−(Mismatch signal)]” was obtained for each probe family.
E7070, or ER-35748 or ER-68487 was added to a medium for HCT116-C9 at a concentration of 8 μM and culture was performed. The results of analysis of RNA extracted from the cells at 12 hours by using GeneChip were compared with the results of RNA analysis for HCT116-C9 cells obtained in the same manner except for not adding the drug. […]

## N#Cc1ccc(S(=O)(=O)Nc2cccc3c(Cl)c[nH]c23)cc1 [ER-35748]
  expression levels of the genes listed in Table 1: increased
  expression levels of the genes listed in Table 2: decreased

## N#Cc1ccc(S(=O)(=O)Nc2cccc3c(C#N)c[nH]c23)cc1 [ER-68487]
  expression levels of the genes listed in Table 1: increased
  expression levels of the genes listed in Table 2: decreased
